Assay results published in ChEMBL document CHEMBL2390874, “Synthesis, antibacterial activity and cytotoxicity of new fused pyrazolo[1,5-a]pyrimidine and pyrazolo[5,1-c][1,2,4]triazine derivatives from new 5-aminopyrazoles” (Eur J Med Chem, 2013).
Values after ≈ are worked out from the molar mass of the structure shown. Active and inactive are the calls of the source. No cut-off for these calls is given here.

Legend:
[1] = Selectivity index, ratio of CC50 for african green monkey vero cells to MIC for Escherichia coli ATCC 10536; format: functional
[2] = Selectivity index, ratio of CC50 for african green monkey vero cells to MIC for Bacillus subtilis ATCC 11774; format: functional
[3] = Selectivity index, ratio of CC50 for african green monkey vero cells to MIC for Staphylococcus aureus ATCC 25923; format: functional
[4] = system: Salmonella typhimurium; experiment: Antibacterial activity against Salmonella typhimurium ATCC 51812 assessed as growth inhibition at 1 mg/ml after 24 hrs by agar diffusion method; format: functional, organism-based; conditions: Salmonella enterica subsp. enterica serovar Typhimurium
[5] = system: Enterococcus faecalis; experiment: Antibacterial activity against Enterococcus faecalis ATCC 14506 assessed as growth inhibition at 1 mg/ml after 24 hrs by agar diffusion method; format: functional, organism-based
[6] = system: Staphylococcus epidermidis; experiment: Antibacterial activity against Staphylococcus epidermidis ATCC 12228 assessed as growth inhibition at 1 mg/ml after 24 hrs by agar diffusion method; format: functional, organism-based
[7] = Cytotoxicity against african green monkey vero cells by MTT assay; format: cell-based; conditions: chlorocebus sabaeus
[8] = system: Staphylococcus aureus; experiment: Antibacterial activity against methicillin-resistant Staphylococcus aureus ATCC 43300 assessed as growth inhibition at 1 mg/ml after 24 hrs by agar diffusion method; format: functional, organism-based
[9] = system: Staphylococcus aureus; experiment: Bactericidal activity against Staphylococcus aureus ATCC 25923 by broth dilution method; format: functional
[10] = system: Escherichia coli; experiment: Bactericidal activity against Escherichia coli ATCC 10536 by broth dilution method; format: functional
[11] = system: Bacillus subtilis; experiment: Bactericidal activity against Bacillus subtilis ATCC 11774 by broth dilution method; format: functional
[12] = system: Escherichia coli; experiment: Antibacterial activity against Escherichia coli ATCC 10536 assessed as growth inhibition by broth dilution method; format: functional
[13] = system: Staphylococcus aureus; experiment: Antibacterial activity against Staphylococcus aureus ATCC 25923 assessed as growth inhibition by broth dilution method; format: functional
[14] = system: Serratia marcescens; experiment: Antibacterial activity against Serratia marcescens ATCC 13880 assessed as growth inhibition at 1 mg/ml after 24 hrs by agar diffusion method; format: functional; conditions: ATCC 13880, 24 h, read-out: DIZ
[15] = system: Bacillus subtilis; experiment: Antibacterial activity against Bacillus subtilis ATCC 11774 assessed as growth inhibition by broth dilution method; format: functional
[16] = system: Pseudomonas aeruginosa; experiment: Antibacterial activity against Pseudomonas aeruginosa ATCC 10145 assessed as growth inhibition at 1 mg/ml after 24 hrs by agar diffusion method; format: functional; conditions: ATCC 10145, 24 h, read-out: DIZ
[17] = system: Escherichia coli; experiment: Antibacterial activity against Escherichia coli ATCC 10536 assessed as growth inhibition at 1 mg/ml after 24 hrs by agar diffusion method; format: functional; conditions: ATCC 10536, 24 h, read-out: DIZ
[18] = system: Staphylococcus aureus; experiment: Antibacterial activity against Staphylococcus aureus ATCC 25923 assessed as growth inhibition at 1 mg/ml after 24 hrs by agar diffusion method; format: functional; conditions: ATCC 25923, 24 h, read-out: DIZ
[19] = system: Bacillus subtilis; experiment: Antibacterial activity against Bacillus subtilis ATCC 11774 assessed as growth inhibition at 1 mg/ml after 24 hrs by agar diffusion method; format: functional; conditions: ATCC 11774, 24 h, read-out: DIZ
[20] = system: Pseudomonas aeruginosa; experiment: Bactericidal activity against Pseudomonas aeruginosa ATCC 10145 by broth dilution method; format: functional
[21] = system: Pseudomonas aeruginosa; experiment: Antibacterial activity against Pseudomonas aeruginosa ATCC 10145 assessed as growth inhibition by broth dilution method; format: functional
[22] = Selectivity index, ratio of CC50 for african green monkey vero cells to MIC for Pseudomonas aeruginosa ATCC 10145; format: functional

Row | Molecule | Selectivity Index [1] | Selectivity Index [2] | Selectivity Index [3] | growth inhibition (GI) [4] | growth inhibition (GI) [5] | growth inhibition (GI) [6] | CC50 [7] | growth inhibition (GI) [8] | MBC [9] | MBC [10] | MBC [11] | MIC [12] | MIC [13] | zone of inhibition at 1000 µg/mL [14] | MIC [15] | zone of inhibition at 1000 µg/mL [16] | zone of inhibition at 1000 µg/mL [17] | zone of inhibition at 1000 µg/mL [18] | zone of inhibition at 1000 µg/mL [19] | also measured
1 | CC(=O)c1nnc2c(C#N)c(N3CCCCC3)nn2c1C | 0.02 | 0.02 | 0.02 | inactive | inactive | inactive | 312 µg/mL (≈ 1.1 mM) | inactive | 16000 µg/mL (≈ 56.3 mM) | 16000 µg/mL (≈ 56.3 mM) | 16000 µg/mL (≈ 56.3 mM) | 16000 µg/mL (≈ 56.3 mM) | 16000 µg/mL (≈ 56.3 mM) | 6 mm | 16000 µg/mL (≈ 56.3 mM) | 6 mm | 8 mm | 9 mm | 10 mm | –
2 | GENTAMICIN | – | – | – | – | – | – | – | – | – | – | – | – | – | – | – | – | – | – | – | MBC [20]: 2 µg/mL; MIC [21]: 1 µg/mL
3 | Cc1ccc(C)n1-c1[nH]nc(N2CCCCC2)c1C#N | 0.18 | 0.35 | 0.18 | inactive | inactive | inactive | 1400 µg/mL (≈ 5.2 mM) | inactive | 8000 µg/mL (≈ 29.7 mM) | 8000 µg/mL (≈ 29.7 mM) | 8000 µg/mL (≈ 29.7 mM) | 8000 µg/mL (≈ 29.7 mM) | 8000 µg/mL (≈ 29.7 mM) | 6 mm | 4000 µg/mL (≈ 14.9 mM) | 7 mm | 7 mm | 12 mm | 16 mm | Selectivity Index [22]: 0.35; MBC [20]: 8000 µg/mL (≈ 29.7 mM); MIC [21]: 4000 µg/mL (≈ 14.9 mM)
4 | Cc1ccc(C)n1-c1[nH]nc(N2CCCC2)c1C#N | 0.07 | 0.14 | 0.07 | inactive | inactive | inactive | 550 µg/mL (≈ 2.15 mM) | inactive | 8000 µg/mL (≈ 31.3 mM) | 16000 µg/mL (≈ 62.7 mM) | 8000 µg/mL (≈ 31.3 mM) | 8000 µg/mL (≈ 31.3 mM) | 8000 µg/mL (≈ 31.3 mM) | 6 mm | 4000 µg/mL (≈ 15.7 mM) | 6 mm | 13 mm | 7 mm | 8 mm | –
5 | Cc1ccc(C)n1-c1[nH]nc(N2CCOCC2)c1C#N | 0.06 | 0.13 | 0.06 | inactive | inactive | inactive | 254 µg/mL (≈ 0.936 mM) | inactive | 4000 µg/mL (≈ 14.7 mM) | 8000 µg/mL (≈ 29.5 mM) | 4000 µg/mL (≈ 14.7 mM) | 4000 µg/mL (≈ 14.7 mM) | 2000 µg/mL (≈ 7.37 mM) | 6 mm | 2000 µg/mL (≈ 7.37 mM) | 6 mm | 10 mm | 10 mm | 14 mm | –
6 | CC(=O)n1nc(N2CCCCC2)c(C#N)c1N | – | 0.06 | – | inactive | inactive | inactive | 1010 µg/mL (≈ 4.35 mM) | inactive | > 16000 µg/mL | 16000 µg/mL (≈ 68.6 mM) | 16000 µg/mL (≈ 68.6 mM) | 16000 µg/mL (≈ 68.6 mM) | 16000 µg/mL (≈ 68.6 mM) | 6 mm | 16000 µg/mL (≈ 68.6 mM) | 6 mm | 10 mm | 10 mm | 6 mm | –
7 | CC(=O)n1nc(N2CCCC2)c(C#N)c1N | 0.18 | 0.18 | 0.18 | inactive | inactive | inactive | 2810 µg/mL (≈ 12.8 mM) | inactive | > 16000 µg/mL | 16000 µg/mL (≈ 73 mM) | 16000 µg/mL (≈ 73 mM) | 8000 µg/mL (≈ 36.5 mM) | 16000 µg/mL (≈ 73 mM) | 6 mm | 16000 µg/mL (≈ 73 mM) | 6 mm | 16 mm | 14 mm | 14 mm | –
